Measurements as given in paper PMC4818757, “Small molecule inhibitors of the Dishevelled‐CXXC5 interaction are new drug candidates for bone anabolic osteoporosis therapy” (EMBO Molecular Medicine, 2016).
Read-outs that look alike come from different tables or passages of the source.

What was measured:
[1] = system: primary calvaria cells; assay: MTT cell viability of primary calvaria cells; format: cell-based, mouse; settings: 2 μM
Description: Appendix Figure S2. The effects of Dvl-CXXC5 binding small molecule inhibitors on primary calvaria cells.
A Primary calvaria cells were treated with 2 µ M of each compound for the indicated times. The cells were subjected to an MTT assay (OD590 reading) to measure cell viability. The data are the mean ± s.d. (error […]
B Primary calvaria cells were treated with 2 µ M of each compound for 4 days. ALP activity levels were visualized by ALP staining. [n =2]
(1 picture or pasted object on this page, not shown here)

[2] = system: ex vivo‐cultured calvaria; assay: Ex vivo calvaria culture, thickness; format: cell-based, mouse; settings: 7 days
Description: Figure 1 Identification and characterization of small molecules competing Dvl–CXXC5 binding in vitro • A A scheme for in vitro screening method of small molecules competing Dvl–CXXC5 binding. Briefly, purified Dvl PDZ domain was attached to the polystyrene surface of each well of 96‐well plates. Then, PolyR‐DBM (polyarginine‐conjugated Dvl binding motif tagged with FITC) (Kim et al, 2015) was added to each well and allowed to bind to the Dvl PDZ domain; 10 μM small‐molecule compound was added to each well, and the compounds competing with Dvl PZD‐PolyR‐DBM binding were measured by a microplate reader to screen the compounds reducing fluorescence signal. • B Screening results of compounds competing Dvl–CXXC5 interaction. […] The relative numbers of β‐catenin‐positive nuclei were counted (D). […] The calvaria thicknesses were measured from the images using Image Pro software (F). […] (error bars), and significance was assessed using unpaired Student's t‐test.
Figure 3 Effect of KY‐02061 on Wnt/β‐catenin pathway, osteoblast differentiation, and ex vivo‐cultured calvaria growth • A MC3T3E1 cells were transfected with pTOPFLASH together with pCMV‐β‐gal. […] The luciferase activities of whole‐cell lysates were measured and normalized with β‐galactosidase activities. […] The calvaria thicknesses were measured from the stained sections using Image Pro software (E). […]

[3] = system: TA-100
From the text: (§1) Appendix Table S3. Bacterial reverse mutation assay with KY-02327
(§2) a Number of revertant colonies of treated plate/Number of revertant colonies of
(§3) vehicle control plate (Maron & Ames, 1983).
(§4) b Negative control. Vehicle: DMSO

[4] = system: TA-98
From the text: as §1, §2, §3, §4

[5] = molecular target: CYP C29 (so in the source); probably CYP2C9) (Homo sapiens, UniProt P11712); assay: Cytochrome P450 inhibition assay, C29; settings: probe fluorogenic P450 substrates
From the text: Appendix Table S4. Cytochrome P450 (CYP) inhibition assay with 10 µ M KY-

[6] = molecular target: CYP3A4 (Homo sapiens, UniProt P08684); assay: in vitro; settings: probe fluorogenic P450 substrates
CYP3A4, sequence (P08684 whole entry): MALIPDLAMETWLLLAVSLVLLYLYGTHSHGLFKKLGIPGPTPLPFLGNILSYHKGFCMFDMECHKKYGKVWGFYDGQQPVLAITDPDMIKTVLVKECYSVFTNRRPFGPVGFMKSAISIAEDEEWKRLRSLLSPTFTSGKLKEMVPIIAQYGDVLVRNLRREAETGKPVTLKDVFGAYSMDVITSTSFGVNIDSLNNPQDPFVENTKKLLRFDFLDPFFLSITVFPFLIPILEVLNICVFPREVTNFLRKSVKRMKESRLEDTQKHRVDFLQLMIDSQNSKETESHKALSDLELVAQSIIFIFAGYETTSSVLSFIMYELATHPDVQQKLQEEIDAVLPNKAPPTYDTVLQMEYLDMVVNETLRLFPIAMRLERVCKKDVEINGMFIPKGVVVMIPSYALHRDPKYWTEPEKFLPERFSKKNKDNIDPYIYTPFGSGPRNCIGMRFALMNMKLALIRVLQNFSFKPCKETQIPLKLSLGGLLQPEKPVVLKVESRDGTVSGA

CYP C29 (so in the source); probably CYP2C9), sequence (P11712 whole entry): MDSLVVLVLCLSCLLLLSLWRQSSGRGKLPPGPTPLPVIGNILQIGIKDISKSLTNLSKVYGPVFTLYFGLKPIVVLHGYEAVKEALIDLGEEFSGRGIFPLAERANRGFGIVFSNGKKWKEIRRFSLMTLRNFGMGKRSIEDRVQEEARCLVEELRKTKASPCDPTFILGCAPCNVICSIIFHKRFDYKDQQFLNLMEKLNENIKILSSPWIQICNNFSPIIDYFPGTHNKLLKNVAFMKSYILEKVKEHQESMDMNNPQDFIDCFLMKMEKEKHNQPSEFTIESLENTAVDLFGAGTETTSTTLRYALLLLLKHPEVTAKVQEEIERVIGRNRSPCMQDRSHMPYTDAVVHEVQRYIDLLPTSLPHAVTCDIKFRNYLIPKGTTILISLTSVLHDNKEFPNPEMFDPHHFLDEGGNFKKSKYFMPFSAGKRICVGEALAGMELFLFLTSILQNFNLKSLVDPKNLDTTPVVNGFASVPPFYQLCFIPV

SMILES	cytotoxic effect (cell number and viability) [1]	increase of thickness of ex vivo‐cultured calvaria compared with DMSO‐treated control ([2]; 2 μM) [%]	thickness of ex vivo‐cultured calvaria, dose dependence [2]	Factor (revertant colonies treated plate / vehicle control plate) ([3]; TA-100, With S-9 mix)	Revertant colonies/plate (Mean) ([3]; TA-100, With S-9 mix, dose (g/plate): KY-02327 1000, B.P 2) [colonies/plate]	Factor (revertant colonies treated plate / vehicle control plate) ([3]; TA-100, Without S-9 mix)	Revertant colonies/plate (Mean) ([3]; TA-100, Without S-9 mix, dose (g/plate): KY-02327 1000, S.A 1) [colonies/plate]	Factor (revertant colonies treated plate / vehicle control plate) ([4]; TA-98, Without S-9 mix)	Revertant colonies/plate (Mean) ([4]; TA-98, Without S-9 mix, dose (g/plate): KY-02327 1000, 2-NF 1) [colonies/plate]	genetic toxicity in bacterial reverse mutation assay ([4]; TA-98 and TA-100)	inhibition at 10 µM [5] [%]	inhibition at 10 µM [6] [%]
CCOC(=O)Cn1c(C(=O)OCC)cc2cc(OS(=O)(=O)c3ccc(C)cc3)ccc21 [KY‐02061]	without any cytotoxic effect	51.2	increased									
CCOC(=O)c1cc2cc(O)ccc2n1CC(=O)NCCN1CCCCC1 [KY‐02327]				1.0	117 ± 8	1.0	123 ± 6	1.0	19	no genetic toxicity	0	0
